In PubChem BioAssay (NCI):
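Test compounds were applied to cells in 96-well plates for 48 hours at 5 doses. GI50 marks 50% less growth. TGI: concentration producing complete growth inhibition.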

Tests used:
Assay in all cases: NCI tumour cell line growth inhibition, 48 h
SR leukemia = system: SR leukemia
MOLT-4 leukemia = system: MOLT-4 leukemia
HCT-116 colon = system: HCT-116 colon
KM12 colon = system: KM12 colon
NCI-H460 lung = system: NCI-H460 lung
M14 melanoma = system: M14 melanoma
CAKI-1 renal = system: CAKI-1 renal
SK-MEL-5 melanoma = system: SK-MEL-5 melanoma
HCT-15 colon = system: HCT-15 colon
HCC-2998 colon = system: HCC-2998 colon

| SMILES | GI50 (SR leukemia) | TGI (SR leukemia) | GI50 (MOLT-4 leukemia) | TGI (MOLT-4 leukemia) | GI50 (HCT-116 colon) | TGI (HCT-116 colon) | GI50 (KM12 colon) | TGI (KM12 colon) | GI50 (NCI-H460 lung) | TGI (NCI-H460 lung) | GI50 (M14 melanoma) | TGI (M14 melanoma) | GI50 (CAKI-1 renal) | TGI (CAKI-1 renal) | GI50 (SK-MEL-5 melanoma) | TGI (SK-MEL-5 melanoma) | GI50 (HCT-15 colon) | TGI (HCT-15 colon) | GI50 (HCC-2998 colon) | TGI (HCC-2998 colon) |
| --- | --- | --- | --- | --- | --- | --- | --- | --- | --- | --- | --- | --- | --- | --- | --- | --- | --- | --- | --- | --- |
| O=C1CCCCN1CCCCC#Cc1ccccc1C#Cc1ccc([N+](=O)[O-])cc1 | 0.0255 µM | 2.14 µM | 2.79 µM | 9.22 µM | 4.18 µM | 13.5 µM | 3.78 µM | 15.7 µM | 2 µM | 4.35 µM | 5.16 µM | 19.3 µM | 2.93 µM | 15 µM | 1.75 µM | 3.88 µM | 1.5 µM | 9.89 µM |  |  |
| COc1ccc(/C(COc2c(-c3ccccc3)oc3ccccc3c2=O)=N\O)cc1 |  |  | 22.9 µM | > 50 µM | 21.8 µM | > 50 µM | 9.46 µM | 23.4 µM | 12.3 µM | 39.6 µM | 28.3 µM | > 50 µM |  |  | 9.61 µM | 20.1 µM | 19.5 µM | > 50 µM | 8.42 µM | 22.3 µM |
| O=C(O)CNS(=O)(=O)c1ccc(NCc2ccccc2)cc1 |  |  |  | > 100 µM |  | > 100 µM |  |  |  | > 100 µM |  | > 100 µM |  | > 100 µM |  | > 100 µM |  | > 100 µM |  | > 100 µM |
| CCOC(=O)[C]1([Bi]([CH3])[CH3])N=NC(C(=O)OC)=C1C(=O)OC (centres undefined) |  |  | 23.3 µM | 63.9 µM |  |  | 21.5 µM | 49.2 µM | > 100 µM | > 100 µM | > 10 µM | > 10 µM | 15.9 µM | 29.3 µM |  |  | 20.7 µM | 49.6 µM | 16.4 µM | 30.7 µM |
| O=C(/N=N/C(=O)OCc1ccccc1)OCc1ccccc1 |  |  |  | > 100 µM |  | > 100 µM |  | > 100 µM |  | > 100 µM |  | > 100 µM |  | > 100 µM |  | > 100 µM |  | > 100 µM |  | > 100 µM |
| Brc1cccc(C=NC23CC4CC(CC(C4)C2)C3)c1 |  |  |  | > 100 µM |  | > 100 µM |  | > 100 µM |  | > 100 µM |  | > 100 µM |  | > 100 µM |  | > 100 µM |  | > 100 µM |  | > 100 µM |
| Cc1ccc2c(c1)[n+]([O-])c(N)n[n+]2[O-] |  | > 100 µM |  | > 100 µM |  | > 100 µM |  | > 100 µM |  | > 100 µM |  | > 100 µM |  | > 100 µM |  | > 100 µM |  | > 100 µM |  |  |
| NC(CCC(=O)NC(CSSCCCCS(=O)O)C(=O)NCC(=O)O)C(=O)O (centres undefined) |  |  |  | > 100 µM |  | > 100 µM |  | > 100 µM |  | > 100 µM |  | > 100 µM |  | > 100 µM |  | > 100 µM |  | > 100 µM |  | > 100 µM |
| CS(=O)(=O)c1ccc([C@H]2O[C@@H](CO)C[C@]2(O)c2ccc(S(C)(=O)=O)cc2)cc1 | > 100 µM | > 100 µM | > 100 µM | > 100 µM | > 100 µM | > 100 µM | > 100 µM | > 100 µM | > 100 µM | > 100 µM |  |  | > 100 µM | > 100 µM | > 100 µM | > 100 µM | > 100 µM | > 100 µM | > 100 µM | > 100 µM |
| COc1ccc(NC2=CC(=O)C(=O)c3ccccc32)nn1 |  |  |  | 1.76 µM |  |  |  | 1.62 µM |  | 3.49 µM |  | 0.668 µM |  | 6.24 µM |  | 2 µM |  | 2.51 µM |  | 21.2 µM |
| N#Cc1cc([N+](=O)[O-])ccc1NC(=O)C(=O)Nc1n[nH]c(N)n1 |  |  |  | > 100 µM |  | > 100 µM |  | > 100 µM |  | > 100 µM |  | > 100 µM |  | > 100 µM |  | > 100 µM |  | > 100 µM |  | > 100 µM |
| CC(=O)CNC(=O)OC(C)(C)C |  | > 100 µM |  | > 100 µM |  | > 100 µM |  | > 100 µM |  | > 100 µM |  | > 100 µM |  | > 100 µM |  | > 100 µM |  |  |  |  |
| C=CCCCCCCCCC(=O)[O][Sn]([CH2]CCC)([CH2]CCC)[CH2]CCC |  |  | 0.228 µM | 0.833 µM | 0.133 µM | 0.262 µM | 0.145 µM | 0.3 µM | 0.152 µM | 0.312 µM | 0.156 µM | 0.299 µM | 0.112 µM | 0.3 µM | 0.148 µM | 0.282 µM | 0.158 µM | 0.348 µM | 0.156 µM | 0.291 µM |
| C[C@]12CC[C@H]3[C@@H](CC=C4C[C@@H](O)CC[C@@]43C)[C@@H]1CC[C@@H]2N(CCO)CCO |  |  |  | > 100 µM |  | > 100 µM |  | > 100 µM |  | > 100 µM |  | > 100 µM |  | > 100 µM |  | > 100 µM |  | > 100 µM |  | 94.9 µM |
| N#Cc1ccc(NC(=O)Nc2ccc(Oc3ccc(NC(=O)Nc4ccc(C#N)cc4)cc3)cc2)cc1 |  |  | 1.12 µM | 37.7 µM | 4.02 µM | > 100 µM | 11.2 µM | > 100 µM | 3.24 µM | > 100 µM | 28.3 µM | > 100 µM | 20.8 µM | > 100 µM | 20.2 µM | > 100 µM | 18 µM | > 100 µM | 0.764 µM | 7.53 µM |
| COc1cc([N+](=O)[O-])cc2c3c(n(C)c12)[C@@]1(C)CCC2c4ccc(OCc5ccccc5)cc4CCC2C1C3 (some centres undefined) |  |  | > 100 µM | > 100 µM | 78.5 µM | > 100 µM | > 100 µM | > 100 µM | 90.1 µM | > 100 µM | > 100 µM | > 100 µM | 86.6 µM | > 100 µM | 78.9 µM | > 100 µM | 53.5 µM | > 100 µM | 47.9 µM | > 100 µM |
| Nc1nc(Cl)c2ncn(Cc3ccc(C45CC6CC(CC(C6)C4)C5)c(O)c3)c2n1 |  |  | 1.25 µM | 16.2 µM | 1.1 µM | 3.15 µM | 2.49 µM | 15.3 µM | 4.03 µM | 15.6 µM |  |  | 1.77 µM | 4.8 µM | 0.558 µM | 11 µM | 8.78 µM | 25.5 µM | 2.26 µM | 8.34 µM |
